{
  "source": "patent US20100323031A1",
  "about": "“Synergistic combination to enhance blood glucose and insulin metabolism” (GLYKON TECHNOLOGIES GROUP, LLC, priority 2009, published 2010)",
  "key": {"[1]": {"tested_on": "streptozotocin (STZ)-induced diabetes", "assay": "Pilot animal streptozotocin-induced diabetes trial, blood glucose by glucometer", "assay_type": "in vivo, male Wistar albino rats", "details": "STD Herbal 250 mg/kg", "description": "The synergism of the formula is reflected in findings in an animal trial of induced diabetes treated with Metformin. To produce streptozotocin (STZ)-induced diabetes in experimental rats, male Wistar albino rats of 12 weeks age were allowed to fast 24 hrs prior to injection with freshly prepared STZ in citrate buffer […] (45 mg/kg, i.p). […] However, an additional arm of similarly-induced diabetic rats that were older and much sicker was added to test the herbal mixture prepared to produce the relative percentages of each ingredient as in Example 1 given above, here termed “STD Herbal.” After an overnight fast, the samples suspended in 5% gum acacia were fed by gastric intubations with a syringe. […] The blood glucose level was determined by using an electronic glucometer (Accu Check, Roche Diagnostic) and the results are tabulated in table 4. n=6 animals in each group. Parenthesis value indicate percentage reduction of blood sugar level; *P<0.01 compared with initial level of blood glucose (0 h) in the respective group. Data were analyzed by repeated measure ANOVA followed by Dunnett test."}, "Human - sedentary": {"tested_on": "Human - sedentary", "details": "3 grams HCA as the free acid equivalent; cited from earlier work"}, "Male Wistar rats": {"tested_on": "Male Wistar rats", "details": "equivalent to 2,170 mg HCA free acid; cited from earlier work"}, "[2]": {"tested_on": "Human morbidly obese diabetics", "details": "published literature, U.S. Pat. No. 6,207,714; cited from earlier work"}, "[3]": {"tested_on": "Aged diabetic obese Zucker rat", "details": "human-equivalent dose, 6:1 rat to human multiplier; cited from earlier work"}},
  "note": "Marks after values point to notes of the source that are not given here.",
  "data": [
    {"compound": "CN(C)C(=N)N=C(N)N", "note": "[Metformin]", "values": [
      {"measurement": "Blood glucose level, Initial (0 hr)", "setting": "[1]; 0 hr, before treatment, overnight fast, Metformin 150 mg/kg by gastric intubation, n=6, in mg/dL (unit assumed)", "result": "329.2 ± 5.25"},
      {"measurement": "percentage reduction of blood sugar level, +1 hr", "setting": "[1]; +1 hr vs initial (0 hr), Metformin 150 mg/kg", "result": "(17.49) %"},
      {"measurement": "Blood glucose level, Treatment +1 hr", "setting": "[1]; +1 hr, Metformin 150 mg/kg by gastric intubation, n=6, in mg/dL (unit assumed)", "result": "271.6 ± 4.0"},
      {"measurement": "percentage reduction of blood sugar level, +2 hr", "setting": "[1]; +2 hr vs initial (0 hr), Metformin 150 mg/kg", "result": "(34.87) %"},
      {"measurement": "Blood glucose level, Treatment +2 hr", "setting": "[1]; +2 hr, Metformin 150 mg/kg by gastric intubation, n=6, in mg/dL (unit assumed)", "result": "214.4 ± 3.17*"},
      {"measurement": "percentage reduction of blood sugar level, +3 hr", "setting": "[1]; +3 hr vs initial (0 hr), Metformin 150 mg/kg", "result": "(46.38) %"},
      {"measurement": "Blood glucose level, Treatment +3 hr", "setting": "[1]; +3 hr, Metformin 150 mg/kg by gastric intubation, n=6, in mg/dL (unit assumed)", "result": "176 ± 6.7*"},
      {"measurement": "percentage reduction of blood sugar level, +4 hr", "setting": "[1]; +4 hr vs initial (0 hr), Metformin 150 mg/kg", "result": "(53.52) %"},
      {"measurement": "Blood glucose level, Treatment +4 hr", "setting": "[1]; +4 hr, Metformin 150 mg/kg by gastric intubation, n=6, in mg/dL (unit assumed)", "result": "153 ± 3.31*"}
    ]},
    {"compound": "O=C([O-])C[C@@](O)(C(=O)[O-])[C@H](O)C(=O)[O-].O=C([O-])C[C@@](O)(C(=O)[O-])[C@H](O)C(=O)[O-].[Ca+2].[Ca+2].[Ca+2]", "note": "[calcium salt, calcium salt of (−)-hydroxycitric acid]", "values": [
      {"measurement": "efficacy in reducing blood glucose", "setting": "Human - sedentary", "result": "ineffective"}
    ]},
    {"compound": "potassium salt of (−)-hydroxycitric acid", "values": [
      {"measurement": "efficacy in reducing blood glucose at smaller dosage", "setting": "Male Wistar rats", "result": "ineffective"},
      {"measurement": "lowest dose of HCA as free acid equivalent found efficacious in reducing blood glucose", "setting": "[2]", "result": 3, "unit": "grams"}
    ]},
    {"compound": "potassium-calcium salt of (−)-hydroxycitric acid", "values": [
      {"measurement": "lowest stand-alone dose shown to be effective, as HCA free acid equivalent", "setting": "[3]", "result": "3,276 mg"}
    ]}
  ]
}
